This is an account of results in patent US20250361268A1, “NOVEL ANTI-INFLAMMATORY PEPTIDE AND USE THEREOF” (NOVACELL TECHNOLOGY INC., priority 2022, published 2025).

Structures are written as SMILES. Peptide text beside a SMILES is read from it. Bounds are passed on as bounds.

In one assay the target is T1, FPR1 (Homo sapiens, UniProt P21462).
T1 sequence (P21462 1-350): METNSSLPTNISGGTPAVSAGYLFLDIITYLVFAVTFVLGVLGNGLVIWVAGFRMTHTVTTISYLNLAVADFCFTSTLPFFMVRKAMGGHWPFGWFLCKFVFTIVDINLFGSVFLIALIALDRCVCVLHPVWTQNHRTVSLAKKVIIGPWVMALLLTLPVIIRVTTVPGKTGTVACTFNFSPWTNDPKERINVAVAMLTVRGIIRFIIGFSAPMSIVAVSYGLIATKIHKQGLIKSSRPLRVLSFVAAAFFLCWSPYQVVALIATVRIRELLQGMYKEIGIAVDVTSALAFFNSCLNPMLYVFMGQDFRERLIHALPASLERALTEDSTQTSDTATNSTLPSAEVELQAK
Kind of assay: Change in calcium activity by peptide, FPR1 activation effect. The assay is classed as cell-based. The settings on record: calcium activity (Fura-2), graded per Table 3, read-out: EC50 for [Ca^2+] FPR1. As to the method: The day before measuring calcium activity, the cells were prepared at 3×10^5 cells per well in a 96-well flat clear bottom black plate (Costar, #3603). The prepared cells were treated with a Fura-2 QBT calcium kit (component A; Molecular Devices, #8197) at the same volume per well. After incubation at 37° C. for 1 hour, the cells were incubated in a dark room at room temperature for 30 minutes. After the Fura-2-treated cells, the prepared peptide, and a dedicated tip were placed at each section of FlexStation 3 Multi-Mode Microplate Reader (Molecular Devices, #Flex3), changes in calcium activity caused by the peptides were measured using SoftMax Pro 7 Software (Molecular Devices, #FLEX3-INSTALL-OS). […]

The next assay concerns the target T2, FPR2 (Homo sapiens, UniProt P25090).
T2 construct: expressed in transfected cells; host or cells: RBL cells (RBL-FPR2)
T2 sequence (P25090 1-351): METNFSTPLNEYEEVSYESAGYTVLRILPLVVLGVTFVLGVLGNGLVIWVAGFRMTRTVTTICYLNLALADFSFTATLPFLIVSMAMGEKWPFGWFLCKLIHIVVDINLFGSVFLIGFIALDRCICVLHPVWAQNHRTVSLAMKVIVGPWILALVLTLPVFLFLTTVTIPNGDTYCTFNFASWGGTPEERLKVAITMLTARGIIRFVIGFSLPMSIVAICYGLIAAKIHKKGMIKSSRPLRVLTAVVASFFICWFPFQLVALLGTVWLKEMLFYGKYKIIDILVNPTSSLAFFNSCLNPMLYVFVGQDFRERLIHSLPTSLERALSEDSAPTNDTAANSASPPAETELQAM
The experiment in a line: Change in calcium activity by peptide (Fura-2) in RBL cells overexpressing FPR2. It counts as cell-based. The note with it: calcium activity (Fura-2), graded per Table 3, read-out: EC50 for [Ca^2+] FPR2. As to the method: The present inventors observed changes in calcium ion permeability to confirm whether the immunomodulatory peptide candidates prepared according to one example of the present invention activate the immune function of a living organism. Specifically, the concentration of calcium ions in cells was measured to confirm whether the peptides activate FPR2.
A peptide dissolved in water or 50% DMSO at a concentration of 0.5 mM was prepared by diluting it to an appropriate concentration in HBSS (Sigma, #55037C)+20 mM HEPES buffer.
In this experiment, the cells were cultured in DMEM (Lonza, #BE12-604F) containing 10% fetal bovine serum (FBS) and 1% penicillin-streptomycin under conditions of 37° C. and 5% CO2.
The day before measuring calcium activity, the cells were prepared at 3×10^5 cells per well in a 96-well flat clear bottom black plate (Costar, #3603). The prepared cells were treated with a Fura-2 QBT calcium kit (component A; Molecular Devices, #8197) at the same volume per well. After incubation at 37° C. for 1 hour, the cells were incubated in a dark room at room temperature for 30 minutes. After the Fura-2-treated cells, the prepared peptide, and a dedicated tip were placed at each section of FlexStation 3 Multi-Mode Microplate Reader (Molecular Devices, #Flex3), changes in calcium activity caused by the peptides were measured using SoftMax Pro 7 Software (Molecular Devices, #FLEX3-INSTALL-OS).

As to `CSCC[C@@H](NC(=O)[C@@H](NC(=O)[C@H](CCCNC(=N)N)NC(=O)[C@H](Cc1ccc(O)cc1)NC(=O)[C@H](CCCNC(=N)N)NC(=O)[C@H](Cc1c[nH]c2ccccc12)NC(=O)[C@@H](N)CCCNC(=N)N)[C@@H](C)O)C(N)=O` [Peptide 153] (HELM PEPTIDE1{R.W.R.Y.R.T.[dM].[am]}$$$$V2.0), the EC50 on FPR1 is over 10000 nM; on FPR2, 11 to 100 nM.
On the same counts, the results for `CSCC[C@@H](NC(=O)[C@H](Cc1ccc(O)cc1)NC(=O)[C@H](CC(C)C)NC(=O)[C@H](Cc1ccc(O)cc1)NC(=O)[C@H](CCCNC(=N)N)NC(=O)[C@H](Cc1c[nH]c2ccccc12)NC(=O)[C@@H](N)CCCNC(=N)N)C(N)=O` [Peptide 154] (HELM PEPTIDE1{R.W.R.Y.L.Y.[dM].[am]}$$$$V2.0) are over 10000 nM and under 10 nM.
On the same counts, the results for `CSCC[C@@H](NC(=O)[C@H](Cc1ccc(O)cc1)NC(=O)[C@H](Cc1ccccc1)NC(=O)[C@H](Cc1ccc(O)cc1)NC(=O)[C@H](CCCNC(=N)N)NC(=O)[C@H](Cc1c[nH]c2ccccc12)NC(=O)[C@@H](N)CCCNC(=N)N)C(N)=O` [Peptide 156] (HELM PEPTIDE1{R.W.R.Y.F.Y.[dM].[am]}$$$$V2.0) are over 10000 nM and under 10 nM.
Regarding `CCCC(=O)N[C@@H](CCCNC(=N)N)C(=O)N[C@@H](Cc1c[nH]c2ccccc12)C(=O)N[C@@H](CCCNC(=N)N)C(=O)N[C@@H](Cc1ccc(O)cc1)C(=O)N[C@@H](CCCCN)C(=O)N1CCC[C@H]1C(=O)N[C@H](CCSC)C(N)=O` [Peptide 75] (HELM PEPTIDE1{[CCCC(=O)[*:2]].R.W.R.Y.K.P.[dM].[am]}$$$$V2.0), the EC50 at FPR1 is 1000 to 10000 nM; at FPR2, under 10 nM.
The like results for `CCCCCCCC(=O)N[C@H](C(=O)N[C@@H](CCCCN)C(=O)N[C@@H](Cc1ccc(O)cc1)C(=O)N[C@@H](CCCCN)C(=O)N[C@H](C(=O)N[C@H](CCSC)C(N)=O)C(C)C)[C@@H](C)CC` [Peptide 137] (HELM PEPTIDE1{[CCCCCCCC(=O)[*:2]].I.K.Y.K.V.[dM].[am]}$$$$V2.0) were, in that order, 1000 to 10000 nM and under 10 nM.
On the same counts, the results for `CCCCCCCC(=O)N1CCC[C@H]1C(=O)N[C@@H](CCSC)C(=O)N[C@@H](CCCCN)C(=O)N[C@@H](Cc1ccc(O)cc1)C(=O)N[C@@H](CCCCN)C(=O)N[C@H](C(=O)N[C@H](CCSC)C(N)=O)C(C)C` [Peptide 28] (HELM PEPTIDE1{[CCCCCCCC(=O)[*:2]].P.M.K.Y.K.V.[dM].[am]}$$$$V2.0) are over 10000 nM and under 10 nM.
The like results for `CSCC[C@H](N)C(=O)N[C@@H](CCCNC(=N)N)C(=O)N[C@@H](Cc1ccc(O)cc1)C(=O)N[C@@H](CCCCN)C(=O)N[C@@H](Cc1ccc(O)cc1)C(=O)N[C@H](CCSC)C(N)=O` [Peptide 41] (HELM PEPTIDE1{M.R.Y.K.Y.[dM].[am]}$$$$V2.0) were, in that order, over 10000 nM and under 10 nM.
In the case of `CSCC[C@H](N)C(=O)N[C@@H](CCCNC(=N)N)C(=O)N[C@@H](Cc1ccc(O)cc1)C(=O)N[C@@H](Cc1c[nH]c2ccccc12)C(=O)N[C@@H](Cc1ccc(O)cc1)C(=O)N[C@H](CCSC)C(N)=O` [Peptide 85] (HELM PEPTIDE1{M.R.Y.W.Y.[dM].[am]}$$$$V2.0), the EC50 is over 10000 nM at FPR1 and under 10 nM at FPR2.
As to `CSCC[C@@H](NC(=O)[C@H](Cc1ccc(O)cc1)NC(=O)[C@H](Cc1ccc(O)cc1)NC(=O)[C@H](Cc1ccc(O)cc1)NC(=O)[C@H](CCCNC(=N)N)NC(=O)[C@H](Cc1c[nH]c2ccccc12)NC(=O)[C@@H](N)CCCNC(=N)N)C(N)=O` [Peptide 123] (HELM PEPTIDE1{R.W.R.Y.Y.Y.[dM].[am]}$$$$V2.0), the EC50 at FPR1 is over 10000 nM; at FPR2, under 10 nM.
On the same counts, the results for `CSCC[C@H](NC(=O)[C@@H](N)Cc1c[nH]cn1)C(=O)N[C@@H](CCCCN)C(=O)N[C@@H](Cc1ccc(O)cc1)C(=O)N[C@@H](CCCCN)C(=O)N[C@H](C(=O)N[C@H](CCSC)C(N)=O)C(C)C` [Peptide 21] (HELM PEPTIDE1{H.M.K.Y.K.V.[dM].[am]}$$$$V2.0) are over 10000 nM and under 10 nM.
The like results for `CCCCCCCC(=O)N[C@@H](CCSC)C(=O)N[C@@H](CCCNC(=N)N)C(=O)N[C@@H](Cc1ccc(O)cc1)C(=O)N[C@@H](Cc1c[nH]c2ccccc12)C(=O)N[C@@H](Cc1ccc(O)cc1)C(=O)N[C@H](CCSC)C(N)=O` [Peptide 88] (HELM PEPTIDE1{[CCCCCCCC(=O)[*:2]].M.R.Y.W.Y.[dM].[am]}$$$$V2.0) were, in that order, over 10000 nM and 11 to 100 nM.
The like results for `CCCC(=O)N[C@@H](CCSC)C(=O)N[C@@H](CCCNC(=N)N)C(=O)N[C@@H](Cc1ccc(O)cc1)C(=O)N[C@@H](CCCCN)C(=O)N[C@@H](Cc1ccc(O)cc1)C(=O)N[C@H](CCSC)C(N)=O` [Peptide 43] (HELM PEPTIDE1{[CCCC(=O)[*:2]].M.R.Y.K.Y.[dM].[am]}$$$$V2.0) were, in that order, over 10000 nM and 11 to 100 nM.
Regarding `CCCCCCCC(=O)N[C@@H](CCSC)C(=O)N[C@@H](CCCNC(=N)N)C(=O)N[C@@H](Cc1ccc(O)cc1)C(=O)N[C@@H](CCCCN)C(=O)N[C@H](C(=O)N[C@H](CCSC)C(N)=O)C(C)C` [Peptide 16] (HELM PEPTIDE1{[CCCCCCCC(=O)[*:2]].M.R.Y.K.V.[dM].[am]}$$$$V2.0), the concentration for a half-maximal effect (EC50) is over 10000 nM on FPR1 and 11 to 100 nM at FPR2.
On the same counts, the results for `CSCC[C@@H](NC(=O)[C@@H]1CCCN1C(=O)[C@H](CCCCN)NC(=O)[C@H](Cc1ccc(O)cc1)NC(=O)[C@H](CCCCN)NC(=O)[C@@H](N)Cc1c[nH]cn1)C(N)=O` [Peptide 146] (HELM PEPTIDE1{H.K.Y.K.P.[dM].[am]}$$$$V2.0) are over 10000 nM and under 10 nM.
On the same counts, the results for `CCCCCCCC(=O)N[C@@H](CCSC)C(=O)N[C@@H](CCCNC(=N)N)C(=O)N[C@@H](Cc1ccc(O)cc1)C(=O)N[C@@H](CCCCN)C(=O)N1CCC[C@H]1C(=O)N[C@H](CCSC)C(N)=O` [Peptide 57] (HELM PEPTIDE1{[CCCCCCCC(=O)[*:2]].M.R.Y.K.P.[dM].[am]}$$$$V2.0) are over 10000 nM and under 10 nM.
On the same counts, the results for `CCCC(=O)N[C@@H](CCCNC(=N)N)C(=O)N[C@@H](CCSC)C(=O)N[C@@H](CCCNC(=N)N)C(=O)N[C@@H](Cc1ccc(O)cc1)C(=O)N[C@@H](Cc1c[nH]c2ccccc12)C(=O)N1CCC[C@H]1C(=O)N[C@H](CCSC)C(N)=O` [Peptide 108] (HELM PEPTIDE1{[CCCC(=O)[*:2]].R.M.R.Y.W.P.[dM].[am]}$$$$V2.0) are 101 to 1000 nM and under 10 nM.
Turning to `CCCC(=O)N[C@@H](Cc1c[nH]cn1)C(=O)N[C@@H](CCSC)C(=O)N[C@@H](CCCNC(=N)N)C(=O)N[C@@H](Cc1ccc(O)cc1)C(=O)N[C@@H](CCCCN)C(=O)N[C@@H](Cc1ccc(O)cc1)C(=O)N[C@H](CCSC)C(N)=O` [Peptide 45] (HELM PEPTIDE1{[CCCC(=O)[*:2]].H.M.R.Y.K.Y.[dM].[am]}$$$$V2.0), the values for the EC50 on FPR1 and at FPR2 were over 10000 nM and under 10 nM, respectively.
Regarding `CCCCCCCC(=O)N[C@@H](CCCCN)C(=O)N[C@@H](CCSC)C(=O)N[C@@H](CCCCN)C(=O)N[C@@H](Cc1ccc(O)cc1)C(=O)N[C@@H](CCCCN)C(=O)N[C@H](C(=O)N[C@H](CCSC)C(N)=O)C(C)C` [Peptide 12] (HELM PEPTIDE1{[CCCCCCCC(=O)[*:2]].K.M.K.Y.K.V.[dM].[am]}$$$$V2.0), the EC50 is over 10000 nM at FPR1 and 11 to 100 nM at FPR2.
